In patent US20130225529A1, “PHOSPHO-ESTER DERIVATIVES AND USES THEREOF” (priority 2012, published 2013):

How the values were obtained:
[1] = Biodistribution of liposomal phospho-ibuprofen amide in mice; type: in vivo
[2] = system: A549 human non-small lung cancer cells; assay: Orthotopic A549 lung tumor model in nude mice; type: in vivo
[3] = type: in vivo, mice; conditions: 55° C. hot plate, 30 min after single i.p. dose; 100 mg/kg, PI-PEG 1,600 mg/kg; control 1.91 ± 0.46
[4] = system: AGS human gastric cancer cells; type: in vivo, mice; conditions: i.p. in corn oil, 3 weeks; PSA-B 200, PSA-G 200, PIA-B 160, PVA-T 100 mg/kg
[5] = system: A431 human squamous cell carcinoma cells; type: in vivo, mice; conditions: hydrogel, topical, 2 weeks, estimated 80 mg/kg
[6] = Inhalation versus oral delivery of PS; type: in vivo, mice
[7] = system: U87 cells; assay: 24-h growth inhibition of U87 glioblastoma cells; type: cell-based; conditions: Homo sapiens, U-87 MG; U87, 24 h
Procedure: U87 cells were treated with sulindac and ibuprofen as well as with the compounds. U87 is a human primary glioblastoma cell line, formally known as U-87 MG. This cell line has epithelial morphology, and is one of the most frequently used glioblastoma cell lines.

[8] = system: skin papillomas; assay: DMBA/TPA-induced skin papillomas in FVB mice; type: in vivo
Excerpt: This initiation-promotion protocol leads to papillomas by wk 10, and in a fraction of the mice to SCC by wk 20. […] Criteria similar to those used for human papilloma classification were applied to assess disease progression: hyperplasia→papilloma (Pap 1-3)→microinvasive SCC (M1-3)→invasive SCC. On wk 20, the study was terminated.

[9] = system: β-catenin signaling; assay: β-catenin transcriptional activity (TOPflash) in HEK293T cells; type: cell-based; conditions: 5 μM each; control 1.23±0.11
[10] = Drug levels in papillomas (HPLC); conditions: equal dose of PS orally
[11] = PK study of topical PSG versus oral PS; conditions: mouse, skin, topical or ocular
[12] = system: U87 glioblastoma cells; assay: Apoptosis (annexin V), PV and PGIA; type: cell-based, human; conditions: 24 h; PGIA 200 μM, PV 40 μM, alone or together
Procedure: Apoptosis: Cells (1.0×10^5 cells/well) were treated with or without PV, PGIA or valproic acid (VPA) for 24 or 48 h. After treatment, cells were trypsinized, stained with Annexin V-FITC (100× dilution, Invitrogen) and propidium iodide (PI) 0.5 μg/ml and the fluorescence intensity was analyzed by FACScaliber.

[13] = system: MDA-MB-231; assay: Cell viability (MTT), MDA-MB-231; type: cell-based; conditions: Homo sapiens, MDA-MB-231, 72 h
[14] = system: HT29; assay: Cell viability (MTT), HT29; type: cell-based; conditions: Homo sapiens, HT-29; HT29, 72 h
[15] = system: A549 cells; assay: Cell proliferation by BrdU staining; type: cell-based, human; conditions: 60 μM (indomethacin equimolar)
[16] = system: SW480 cells; assay: Cell cycle by PI staining; type: cell-based, human; conditions: 1×IC50 PTI; indomethacin at equimolar concentration; control 56.8
[17] = system: A549 cells; assay: Apoptosis by annexin V and PI staining; type: cell-based, human; conditions: 72 h, control 7.5%
Procedure: After the A549 cells were treated with the test drug in 6-well plates for 72 h, all cell populations (suspended and attached) were collected and stained with annexin V-FITC and propidium iodide (PI) (Invitrogen, Carlsbad, Calif.) for 15 min. Annexin V-FITC and PI fluorescence intensities were analyzed by flow cytometry with a FACScalibur. Annexin V(+)/PI(−) cells are early apoptotic cells; annexin V(+)/PI(+) cells are late apoptotic cells; and annexin V(−)/PI(+) cells are necrotic cells.

[18] = system: A549 cells; assay: Cellular uptake of PTI and indomethacin; type: in vitro ADME, human
Procedure: A549 cells were seeded in […] plates and allowed to grow as a monolayer. […] The incubation was terminated by washing the cell monolayer with complete medium and PBS. The cells were harvested by scraping, extracted by two-fold volume of acetonitrile and centrifuged at 13,000 rpm for 5 min. Drug levels were determined by HPLC.

[19] = Cardiotoxicity, heart tissue histology; type: in vivo, mice; conditions: treated for 1.5 months, H&E
Excerpt: Heart tissue sections from mice treated with PTI for 1.5 months were examined and scored histologically, following H&E staining and light microscopy for tissue damage and for the presence of inflammatory cells.

[20] = system: A549 human non-small cell lung cancer xenografts; assay: A549 lung cancer xenografts, treatment protocol, PTI; type: in vivo, mice; conditions: 2 weeks, vs control
Procedure: Lung cancer treatment protocol: A549 cells (1.5×106) suspended in 100 μl of PBS (25% Hydrogel) were injected subcutaneously into both the left and right flanks of 5-6-week old female NOD SCID mice (Taconic Farms, Germantown, N.Y.). When the average tumor volume reached 100 mm3, the mice were divided into 3 groups: vehicle, PTI 10 mg/kg/d, and PTI 15 mg/kg/d (n=10/group); treatment lasted 2 weeks. At the end of the treatment, animals were euthanized and the xenografts were harvested.

[21] = system: SW480 colon cancer cells; assay: SW480 colon cancer xenografts, prevention protocol, PTI; type: in vivo, mice; conditions: oral gavage; PTI 10 mg/kg/d, indomethacin 2 mg/kg/d; end of study
[22] = system: A549 xenografts; assay: Immunohistochemistry of A549 xenografts (PCNA, TUNEL); type: in vivo, mice
Procedure: (§1) Staining for PCNA and p-p65 (Ser276) was performed as described. Apoptosis was determined immunohistochemically by the terminal deoxynucleotidyl transferase-mediated deoxyuridine triphosphate-biotin nick end-labeling (TUNEL) assay.

[23] = system: p65 subunit of NF-κB; assay: NF-κB activation in A549 xenografts (p-p65 Ser276); type: in vivo, mice; conditions: vs controls
Procedure: as §1
To further explore the mechanism of action of PTI, we investigated the activation of NF-κB in the A549 lung tumor xenografts from the control and PTI-treated groups, by determining Ser276 phosphorylation of the p65 subunit of NF-κB. A shown in FIG. 28, compared to controls, PTI decreased the levels of p-p65 Ser276 in tumor xenografts by 90.0% (p=0.004).

[24] = molecular target: T1, COX-1 (Ovis aries, UniProt P05979); assay: COX fluorescent inhibitor screening assay, COX-1; type: biochemical
T1 construct: purchased Cayman Chemical Co
T1 sequence (P05979 25-600): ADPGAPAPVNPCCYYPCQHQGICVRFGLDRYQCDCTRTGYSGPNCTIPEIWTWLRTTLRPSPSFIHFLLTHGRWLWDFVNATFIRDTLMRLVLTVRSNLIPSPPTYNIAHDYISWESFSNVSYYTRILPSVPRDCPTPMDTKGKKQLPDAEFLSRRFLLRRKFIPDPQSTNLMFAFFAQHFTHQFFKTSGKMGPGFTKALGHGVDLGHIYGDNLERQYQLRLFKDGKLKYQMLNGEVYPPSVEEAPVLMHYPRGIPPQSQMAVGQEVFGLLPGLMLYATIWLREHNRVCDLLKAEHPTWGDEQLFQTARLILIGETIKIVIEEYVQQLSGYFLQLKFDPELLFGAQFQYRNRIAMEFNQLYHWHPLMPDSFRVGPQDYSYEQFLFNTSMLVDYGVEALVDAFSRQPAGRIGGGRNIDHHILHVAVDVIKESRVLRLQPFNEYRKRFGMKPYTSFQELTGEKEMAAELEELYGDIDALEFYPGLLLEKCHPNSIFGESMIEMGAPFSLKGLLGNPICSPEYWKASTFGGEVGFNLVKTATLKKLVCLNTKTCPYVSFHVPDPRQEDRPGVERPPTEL

[25] = molecular target: COX-2 (Homo sapiens, UniProt P35354); assay: COX fluorescent inhibitor screening assay, COX-2; type: biochemical
COX-2, sequence (P35354 18-604): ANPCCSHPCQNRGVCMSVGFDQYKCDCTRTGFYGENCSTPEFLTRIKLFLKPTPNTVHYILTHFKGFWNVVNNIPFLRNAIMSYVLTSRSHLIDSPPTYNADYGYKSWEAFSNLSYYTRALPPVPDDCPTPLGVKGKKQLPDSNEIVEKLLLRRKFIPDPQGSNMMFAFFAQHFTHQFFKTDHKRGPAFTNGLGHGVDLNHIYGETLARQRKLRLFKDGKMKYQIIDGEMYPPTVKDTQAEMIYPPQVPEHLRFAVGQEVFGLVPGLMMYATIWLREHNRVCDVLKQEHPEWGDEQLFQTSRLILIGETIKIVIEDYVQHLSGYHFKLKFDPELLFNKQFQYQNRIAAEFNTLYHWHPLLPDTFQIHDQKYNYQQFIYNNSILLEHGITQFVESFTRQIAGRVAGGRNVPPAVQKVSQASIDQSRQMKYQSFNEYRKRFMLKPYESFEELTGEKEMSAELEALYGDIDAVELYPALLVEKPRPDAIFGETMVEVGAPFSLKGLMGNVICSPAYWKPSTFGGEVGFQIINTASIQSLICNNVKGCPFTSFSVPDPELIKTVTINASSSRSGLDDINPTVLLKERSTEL

[26] = system: PGE2 production; assay: PGE2 production by A549 cells; type: cell-based, human
[27] = Gastrointestinal toxicity in rats
[28] = system: Salmonella typhimurium (TA98 and TA100); assay: Salmonella plate incorporation mutagenicity assay; conditions: 1.5 to 5000 μg/plate, with or without rat liver S9
[29] = system: liver esterases; assay: Stability of PTI to purified porcine liver esterases; conditions: pig, half-life
[30] = system: porcine liver esterases; assay: as above; conditions: 4 IU/ml porcine liver esterase, 20 min
[31] = Stability of PTI in complete media containing 10% serum; conditions: after 24 h
[32] = Pharmacokinetics of PTI and indomethacin, single i.p. dose
[33] = 200 mg/kg once a week for 8 weeks

## CCOP(=O)(OCC)OCCCCNC(=O)C(C)c1ccc(CC(C)C)cc1 (stereo not drawn) [Phospho-ibuprofen amide 105, Phosphoric acid diethyl ester 4-[2-(4-isobutyl-phenyl)-propionylamino]-butyl ester]
[1]; compared with corresponding carboxylic ester compound
  blood and tissue levels of intact compound: significant blood and tissue levels of intact compound
[1]; liposomal, single 200 mg/kg i.v., 1 h
  biodistribution in major organs: preferentially accumulated in lungs
[2]; [33]
  reduction based on lung tumor weight / lung weight: 80%
  reduction of lung cancer based on fluorescence: 95%
[2]; liposomal, I.V.
  lung cancer on fluorescence images of lungs: essentially eliminated lung cancer
[3]
  latency values (mean±SD): 3.80 ± 0.46 s
[4]
  tumor growth inhibition: 33.8%
[5]
  tumor growth inhibition: 51.5%

## CCOP(=O)(OCC)OCCCCOC(=O)CC1=C(C)/C(=C/c2ccc([S+](C)[O-])cc2)c2ccc(F)cc21 (stereo not drawn) [PS 118]
[3]
  latency values (mean±SD): 4.55 ± 1.00 s
[6]; inhalation and oral
  PS levels in plasma: undetectable
[6]; inhalational 6.5 mg/kg
  level of intact PS in lungs: > 20 nmol/g
[6]; mouse, in vivo, po
  total drug levels in lungs, inhalation vs oral: significantly higher compared to those by oral administration
[6]; oral 150 mg/kg
  level of intact PS in lungs: < 2 nmol/g
[7]
  IC50: 114 µM
[8]; oral
  papilloma multiplicity, oral administration: failed to reduce papilloma multiplicity
[8]; topical
  reduction of tumor burden (average tumor volume/mouse): ~90%
  thickness of the epidermis: partial effect
[8]; topical application
  reduction of tumor number (papillomas/mouse): merely stabilized disease progression
[9]
  luciferase/renilla activity: 0.76±0.03
[10]
  level of PS in papillomas: 0.3 ± 0.2 nmol/g
[11]
  AUC(0-t): 684 µM·h
  Cmax: 36.1 µM
  Tmax: 120 min

## CCCC(CCC)C(=O)OCCCCOP(=O)(OCC)OCC [PV]
[12]
  fold-increase of annexinV (+) cells: 3.0 fold

## CCOP(=O)(OCC)OCCc1ccc(OC(=O)Cc2c(C)n(C(=O)c3ccc(Cl)cc3)c3ccc(OC)cc23)cc1 [PTI, [1-(4-Chloro-benzoyl)-5-methoxy-2-methyl-1H-indol-3-yl]-acetic acid 4-[2-(diethoxy-phosphoryloxy)-ethyl]-phenyl ester]
[13]
  IC50: 23 µM
[14]
  IC50: 87 µM
[15]
  decrease of proportion of BrdU positive cells: 96%
[16]
  proportion of cells in G0/G1 phase: 69.7%
[17]; 1.5×IC50
  annexin V+ cells: 12.3%
[17]; 2×IC50
  annexin V+ cells: 71.4%
[18]; 6 h incubation, 50 to 200 μM
  cellular uptake, fold greater than indomethacin: about 200 fold
[18]; 16 h
  cellular uptake, fold greater than indomethacin: about 230 fold
[19]
  cardiotoxicity: No differences in cardiotoxicity
[20]; 10 mg/kg/d
  reduction of tumor volume: 68%
[20]; 15 mg/kg/d
  reduction of tumor volume: 91%
[21]
  reduction of tumor growth: 69%
[22]; PTI-treated tumors, controls 59.7±7.5%
  cell proliferation (PCNA): 40.2±4.5%
[22]; control 3.3±0.3%
  apoptosis index (TUNEL): 5.8±1.2%
[22]; vs control
  increase of apoptosis index: 75.8%
[23]
  decrease of p-p65 Ser276 levels in tumor xenografts: 90.0%
[24]
  IC50: 905 µM
[25]
  selectivity for COX-2 over COX-1: 12.6 fold
[25]; purified COX-2
  IC50: 71.7 µM
[26]
  PGE2 levels induced by the calcium ionophore A23187: prevented the increase in PGE2 levels
[27]; PTI vs indomethacin
  reduction in gastrointestinal toxicity: 60%
[27]; gavage 4 days, indomethacin 4.75 mg/kg/day, PTI 10 mg/kg/day
  rats that developed ulcers: 40%
[28]
  genotoxicity (reverse mutations): no significant genotoxicity
[29]; 2 IU/ml esterase
  half-life: 5 min
[29]; 4 IU/ml esterase
  half-life: 2 min
[30]
  intact PTI remaining: approximately 20%
[31]
  hydrolyzed: 40%
[32]; mouse, in vivo, ip, 100 mg/kg
  Cmax: 46 µM
[32]; single i.p. 100 mg/kg PTI
  plasma detectability of PTI: undetectable at 4 h
  time of maximum concentration of PTI: 2 h
